In this test the target is human IL-17A / human IL-17RA (Homo sapiens (Human), UniProt Q16552). Nature of the test: Human IL-17A biochemical assay (HTRF, blocking of IL-17A binding to IL-17RA). Conditions: 0.4 nM IL-17A, 0.3 nM IL-17RA, max compound concentration 10 uM. How it is done:
Compounds disclosed herein were tested for blocking of human IL-17A (Cat: C774, novoprotein) protein with its receptor human IL-17RA (Cat: C153, novoprotein) in an assay based on Homogeneous Time Resolved Fluorescence. 0.4 nM recombinant human IL-17A protein was pre-incubated with a serial dilution of compounds disclosed herein (maximum concentration is 10 uM, 2.7-fold serially diluted, 10 points) at room temperature for 3 hours in an assay buffer containing 20 mM HEPES, pH 7.5, 50 mM NaCl, 0.1% BSA, 0.2 mM DTT, 0.005% Tween 20. Then 0.3 nM recombinant human IL-17RA was added to plate and further incubated at room temperature for 1 hour. After that Mab Anti-6His Tb cryptate Gold (Cat: 61HI2TLB, Cisbio Bioassays) and MAb Anti Human IgG-XL665 (Cat: 61HFCXLB, Cisbio Bioassays) were added to plate and further incubated at room temperature for 1 hour. The HTRF signals (ex337 nm, em620 nm/665 nm) were read on BMG PHERAstar FSX instrument. The inhibition percentage of human IL-17A interaction with its receptor human IL-17RA in presence of increasing concentrations of compounds was calculated based on the ratio of […]. The IC50 for each compound was derived from fitting the data to the four-parameter logistic equation by Dotmatics.

The structures appear in SMILES notation.

human IL-17A / human IL-17RA, sequence (Q16552 24-155): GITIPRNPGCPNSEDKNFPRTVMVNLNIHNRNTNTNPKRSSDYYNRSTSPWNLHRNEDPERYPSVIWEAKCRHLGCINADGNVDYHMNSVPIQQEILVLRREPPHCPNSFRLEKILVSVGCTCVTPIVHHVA

By IC50 is commonly meant the concentration that gives 50% inhibition. A higher IC50 goes with a need for much substance. For the compound `CNC(=O)C1(N2C[C@@H](C(C)C)NC2=O)Cc2ccc(NC(=O)[C@@H](NC(=O)c3ccn(CCO)n3)C3CCCCC3)cc2C1` (stereo partly drawn) [Example 103, N-((1S)-1-cyclohexyl-2-((2-((R)-4-isopropyl-2-oxoimidazolidin-1-yl)-2-(methylcarbamoyl)-2,3-dihydro-1H-inden-5-yl)amino)-2-oxoethyl)-1-(2-hydroxyethyl)-1H-pyrazole-3-carboxamide], the IC50 came to 2700 nM. The same measure for `CNC(=O)C1(N2CC(C3CCc4ccccc43)NC2=O)Cc2ccc(NC(=O)[C@@H](NC(=O)c3ccnn3C)C3CCCCC3)cc2C1` (stereo partly drawn) [Example 92, N-((1S)-1-cyclohexyl-2-((2-(4-(2,3-dihydro-1H-inden-1-yl)-2-oxoimidazolidin-1-yl)-2-(methylcarbamoyl)-2,3-dihydro-1H-inden-5-yl)amino)-2-oxoethyl)-1-methyl-1H-pyrazole-5-carboxamide]: 3040 nM; for `CNC(=O)C1(N2CC3(CC3)CNC2=O)Cc2ccc(NC(=O)[C@@H](NC(=O)c3cnc4c(C#N)cccn34)C3CCCCC3)cc2C1` (stereo partly drawn) [Example 180, 8-cyano-N-((1S)-1-cyclohexyl-2-((2-(methylcarbamoyl)-2-(6-oxo-5,7-diazaspiro[2.5]octan-5-yl)-2,3-dihydro-1H-inden-5-yl)amino)-2-oxoethyl)imidazo[1,2-a]pyridine-3-carboxamide]: 3680 nM; for `CNC(=O)C1(N2CC(CC(C)C)NC2=O)Cc2ccc(NC(=O)[C@@H](NC(=O)c3ccnn3C)C3CCCCC3)cc2C1` (stereo partly drawn) [Example 24, N-((1S)-1-cyclohexyl-2-((2-(4-isobutyl-2-oxoimidazolidin-1-yl)-2-(methylcarbamoyl)-2,3-dihydro-1H-inden-5-yl)amino)-2-oxoethyl)-1-methyl-1H-pyrazole-5-carboxamide]: 2340 nM. With `Cc1nonc1C(=O)N[C@H](C(=O)Nc1ccc2c(c1)CC(C(=O)Nc1ccc(C(F)(F)F)c(Cl)c1)(N1C[C@@H](C(C)C)NC1=O)C2)C(C1CC1)C1CC1` (stereo partly drawn) [Example 260, N-((2S)-1-((2-((3-chloro-4-(trifluoromethyl)phenyl)carbamoyl)-2-((R)-4-isopropyl-2-oxoimidazolidin-1-yl)-2,3-dihydro-1H-inden-5-yl)amino)-3,3-dicyclopropyl-1-oxopropan-2-yl)-4-methyl-1,2,5-oxadiazole-3-carboxamide] the figure was > 10000 nM; with `CNC(=O)C1(N2CC(CC3CCCCC3)NC2=O)Cc2ccc(NC(=O)[C@@H](NC(=O)c3ccnn3C)C3CCCCC3)cc2C1` (stereo partly drawn) [Example 88, N-((1S)-1-cyclohexyl-2-((2-(4-(cyclohexylmethyl)-2-oxoimidazolidin-1-yl)-2-(methylcarbamoyl)-2,3-dihydro-1H-inden-5-yl)amino)-2-oxoethyl)-1-methyl-1H-pyrazole-5-carboxamide], 2060 nM; with `CNC(=O)C1(N2C[C@@H](CCc3ccccc3)NC2=O)Cc2ccc(NC(=O)[C@@H](NC(=O)c3ccnn3C)C3CCCCC3)cc2C1` (stereo partly drawn) [Example 96, N-((1S)-1-cyclohexyl-2-((2-(methylcarbamoyl)-2-((R)-2-oxo-4-phenethylimidazolidin-1-yl)-2,3-dihydro-1H-inden-5-yl)amino)-2-oxoethyl)-1-methyl-1H-pyrazole-5-carboxamide], 2320 nM. For `CNC(=O)C1(N2C[C@@H](C(C)C)NC2=O)Cc2ccc(NC(=O)[C@@H](NC(=O)C3CC3)C3CCCCC3)cc2C1` (stereo partly drawn) [Example 49, 5-((S)-2-cyclohexyl-2-(cyclopropanecarboxamido)acetamido)-2-((R)-4-isopropyl-2-oxoimidazolidin-1-yl)-N-methyl-2,3-dihydro-1H-indene-2-carboxamide], the IC50 stood at 1810 nM. With `CCOC(=O)N[C@H](C(=O)Nc1ccc2c(c1)CC(C(=O)NC)(N1C[C@@H](C(C)C)NC1=O)C2)C1CCCCC1` (stereo partly drawn) [Example 50, ethyl ((1S)-1-cyclohexyl-2-((2-((R)-4-isopropyl-2-oxoimidazolidin-1-yl)-2-(methylcarbamoyl)-2,3-dihydro-1H-inden-5-yl)amino)-2-oxoethyl)carbamate] the figure was 1580 nM; with `Cc1nonc1C(=O)N[C@H](C(=O)Nc1ccc2c(c1)CC(C(=O)Nc1ccc(C3CC3)cc1Cl)(N1C[C@@H](C(C)C)NC1=O)C2)C(C1CC1)C1CC1` (stereo partly drawn) [Example 267, N-((2S)-1-((2-((2-chloro-4-cyclopropylphenyl)carbamoyl)-2-((R)-4-isopropyl-2-oxoimidazolidin-1-yl)-2,3-dihydro-1H-inden-5-yl)amino)-3,3-dicyclopropyl-1-oxopropan-2-yl)-4-methyl-1,2,5-oxadiazole-3-carboxamide], > 10000 nM; with `CNC(=O)C1(N2C[C@@H](C(C)C)NC2=O)Cc2ccc(NC(=O)[C@@H](Nc3nc4ccccc4o3)C3CCCCC3)cc2C1` (stereo partly drawn) [Example 77, 5-((S)-2-(benzo[d]oxazol-2-ylamino)-2-cyclohexylacetamido)-2-((R)-4-isopropyl-2-oxoimidazolidin-1-yl)-N-methyl-2,3-dihydro-1H-indene-2-carboxamide], 490 nM. With `CC1CN(CC2Cc3ccc(NC(=O)[C@@H](NC(=O)c4ccnn4C)C4CCCCC4)cc3O2)C(=O)N1` (stereo partly drawn) [Example 21, N-((1S)-1-cyclohexyl-2-((2-((4-methyl-2-oxoimidazolidin-1-yl)methyl)-2,3-dihydrobenzofuran-6-yl)amino)-2-oxoethyl)-1-methyl-1H-pyrazole-5-carboxamide] the figure was 2400 nM. `CNC(=O)C1(N2CC(C)NC2=O)Cc2ccc(NC(=O)[C@H](CC3CCCCC3)NC(=O)c3ccnn3C)cc2C1` (stereo partly drawn) [Example 16, N-((2S)-3-cyclohexyl-1-((2-(4-methyl-2-oxoimidazolidin-1-yl)-2-(methylcarbamoyl)-2,3-dihydro-1H-inden-5-yl)amino)-1-oxopropan-2-yl)-1-methyl-1H-pyrazole-5-carboxamide]: the IC50 was determined as 5000 nM. Against the preceding compound, the IC50 is about 2.1-fold higher. The same measure for `CNC(=O)C1(N2C[C@@H](C(C)C)NC2=O)Cc2ccc(NC(=O)[C@@H](NC(=O)c3ccnn3C)C3CCC3)cc2C1` (stereo partly drawn) [Example 45, N-((1S)-1-cyclobutyl-2-((2-((R)-4-isopropyl-2-oxoimidazolidin-1-yl)-2-(methylcarbamoyl)-2,3-dihydro-1H-inden-5-yl)amino)-2-oxoethyl)-1-methyl-1H-pyrazole-5-carboxamide]: 5130 nM; for `CNC(=O)C1(N2C[C@@H](C(C)C)NC2=O)Cc2ccc(NC(=O)[C@@H](NC(=O)CCc3ccccc3)C3CCCCC3)cc2C1` (stereo partly drawn) [Example 52, 5-((S)-2-cyclohexyl-2-(3-phenylpropanamido)acetamido)-2-((R)-4-isopropyl-2-oxoimidazolidin-1-yl)-N-methyl-2,3-dihydro-1H-indene-2-carboxamide]: 1310 nM. With `CNC(=O)C1(N2C[C@@H](C(C)C)NC2=O)Cc2ccc(NC(=O)[C@H](NC(=O)c3ccnn3C)C(C3CC3)C3CC3)cc2C1` (stereo partly drawn) [Example 93, N-((2R)-1,1-dicyclopropyl-3-((2-((R)-4-isopropyl-2-oxoimidazolidin-1-yl)-2-(methylcarbamoyl)-2,3-dihydro-1H-inden-5-yl)amino)-3-oxopropan-2-yl)-1-methyl-1H-pyrazole-5-carboxamide] the figure was 830 nM.
